Assay: gradient 5% acetonitrile 3 min, to 50% in 2 min, to 85% in 15 min, held 3 min, 100 µL/min
Conditions: column: Zorbax Extend-C18 2.1 x 50 mm; eluents: water / acetonitrile, 0.1% formic acid
How it was run: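 Over 3 months, pure standards in mixtures of ~100 molecules were run by HPLC coupled to a quadrupole time-of-flight mass spectrometer in positive and negative ionization mode. The column was a Zorbax Extend-C18 (2.1 × 50 mm, 1.8 μm) at 100 μL/min, eluted with water and acetonitrile each holding 0.1% formic acid, with 40 μL dead and 900 μL dwell volumes. Retention time was determined from adduct peaks chosen by software and checked manually.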

RP-LC retention time [s] | Structure (SMILES)
846 | O=c1c2cc(-c3ccccc3)nn2ccn1CC(O)c1ccccc1 (centres undefined)
1340 | COc1ccc(-c2noc(-c3ccc(N4CCN(c5cccc(OC)c5)CC4)nc3)n2)cc1
874 | Cc1cccc(N2CCN(C(=O)C3CCCN(c4cc(=O)n(C)c(=O)n4C)C3)CC2)c1C (centres undefined)
962 | CSc1ccc(CNC(=O)Cn2c(=O)cc(-c3nc(C4CC4)no3)c3ccccc32)cc1
682 | Cc1ccc(Nc2c(-c3ccc(N4CCOCC4)cc3)nc3ccccn23)cc1
1050 | N#Cc1ccc(NC(=O)C2CCN(S(=O)(=O)c3cc(-c4noc(C5CCC5)n4)cs3)CC2)cc1
754 | CCCS(=O)(=O)N1CCOc2ccc(NC(=O)C3CC3)cc2C1
1060 | COc1ccccc1-c1noc(-c2nnn(Cc3nc(-c4ccccc4OC)oc3C)c2C)n1
900 | Cc1ccc2c(c1)N(Cc1cc(F)cc(F)c1)N=C(C(=O)N1CCCC1)S2(=O)=O
657 | O=C(O)CC1CCCN(c2cnn(CC3CC3)c(=O)c2)C1 (centres undefined)
651 | CN(C)c1ccc(CNC(=O)CN2C(=O)CCc3cc(Br)ccc32)cc1
596 | CCN(Cc1ccccc1)C(=O)Cn1c(N)nc(C)cc1=O
853 | CCCCn1c(=O)c2ccccc2n(Cc2nc(-c3ccc(C)cc3)no2)c1=O
669 | CN1C(=O)CCC2(CNC(=O)c3n[nH]c(=O)c4ccccc34)CCC=C12 (centres undefined)
704 | CCc1c(C2CCN(C(=O)c3cc(C)oc3C)CC2)noc1N
911 | COc1ccc(-c2nc(C3CC(=O)N(c4ccc(OC)c(OC)c4)C3)no2)c(C)c1 (centres undefined)
741 | O=C(NCc1ccccc1)C1CCN(C(=O)C2Sc3ccccc3NC2=O)CC1 (centres undefined)
1060 | COc1ccc(S(=O)(=O)N2CCC(CCOc3ccccc3F)C2)cc1 (centres undefined)
948 | CCn1cc(S(=O)(=O)N2CCC(CCOc3ccccc3F)C2)cn1 (centres undefined)
902 | CCOc1ccccc1NC(=O)N1CCC2(CC1)N=C(c1cccc(F)c1)C(=O)N2
1040 | Cc1nc(-c2ccc(OCC(C)C)c(C#N)c2)sc1C(=O)O
743 | O=C(NC1CCCN(c2ccc(=O)[nH]n2)C1)c1cc2cc(Cl)ccc2[nH]1 (centres undefined)
640 | COc1ccc(NC(=O)c2cc(NC(=O)C3CCC3)cc3nc(C)ccc23)cc1OC

RP-LC retention time [s] | Structure (SMILES)
931 | COc1cc(CN2CC(F)(F)C[C@H]2c2nnc(C3CC3)o2)ccc1F
877 | Cc1cc2c(c(=O)n(-c3ccccc3)c(=O)n2CC(=O)Nc2ccc(Br)cc2)n1C
892 | O=C(NCc1ccccc1C(F)(F)F)C1CCN(c2nnc(-c3ccccc3)o2)CC1
664 | Cc1ccc(NC(=O)CSc2ccc(N3CCCC(C(=O)NC4CC4)C3)nn2)cc1F (centres undefined)
605 | COc1ccc(CCNS(=O)(=O)c2c(N)n(C)c(=O)n(C)c2=O)cc1OC
737 | Cc1cc2[nH]c(C(=O)Nc3cc(F)c(F)cc3F)c(CN3CCOCC3)c2s1
707 | Cc1cccc(NC(=O)CS(=O)(=O)Cc2ccccc2)n1
1010 | Cc1ccc(Cl)cc1NS(=O)(=O)c1ccc(-c2c(C)noc2C)cc1
1150 | CCn1c(C(=O)NCCc2c[nH]c3ccccc23)cc2c(-c3cccs3)nn(-c3ccccc3)c21
807 | O=C(Cc1nnc(-c2ccc3ncccc3c2)o1)NC1CCCCCC1
1100 | CC(C)c1ccc(N2C(=O)C3N=NN(Cc4nc(-c5ccccc5Cl)no4)C3C2=O)cc1 (centres undefined)
704 | CCOCc1nc(C2CCCN(C(=O)NC(C)C)C2)no1 (centres undefined)
755 | O=C(c1cnccn1)N1CCC(Oc2nc3ccccc3s2)CC1
729 | CC1CN(c2ccc(F)cc2)c2nc3c(c(=O)n(CC(=O)O)c(=O)n3C)n2C1 (centres undefined)
1070 | Fc1ccc(-c2noc(Cc3nnc(-c4cccc(Cl)c4)o3)n2)cc1
610 | Cc1ccsc1C(=O)N1CCc2nn(C)c(=O)n2CC1
833 | Cc1csc(-c2ccc(N3CCN(C(=O)c4ccc5ccccc5n4)CC3)nc2)n1
882 | CCc1ccc(NC(=O)Cn2c(=O)c3cc(-c4ccco4)nn3c3ncccc32)cc1
1030 | Cc1ccc(CNC(=O)C2(C)CCCN(C(=O)Nc3ccc(F)c(Cl)c3)C2)cc1 (centres undefined)
594 | O=C(Cc1ccsc1)NC1CCc2nnc(C3CC3)n2CC1 (centres undefined)
702 | Cc1cc2c(N3CCCC(C(=O)NCc4ccc(Br)cc4)C3)nccc2s1 (centres undefined)
606 | COCCc1nncn1C1CN(Cc2cccc(OC(F)(F)F)c2)C1
784 | CCOc1ccc2nc(NC(=O)Cc3csc4nc(-c5ccc(OC)c(OC)c5)cn34)sc2c1

RP-LC retention time [s] | Structure (SMILES)
933 | O=c1ccc(-c2ccc(F)cc2)nn1CCc1nc(-c2ccc3c(c2)OCO3)no1
786 | CS(=O)(=O)c1ccc2nc(Nc3nc4cc5c(cc4s3)OCO5)sc2c1
934 | O=C(NCc1cccc(C(F)(F)F)c1)c1cnc(-c2ccccc2)nc1-c1ccncc1
884 | O=C(NCc1ccccc1)c1ccc(-c2cccs2)nc1
944 | Cn1cc(-c2nc(C(=O)NCc3cc(F)cc(F)c3)cs2)c2cccnc21
691 | O=C(NCCOc1ccc(F)cc1)C1CN(C(=O)c2cccs2)C1
986 | CCn1cc(C2=CCN(S(=O)(=O)c3ccc(OC)cc3)CC2)c2cccnc21
830 | Cc1cc(C)c(CNC(=O)c2ccc3c(c2)CC(=O)N3C)c(C)c1
677 | CCN1CCN(c2cc(C)nc3nc(-c4ccc(C(C)(C)C)cc4)nn23)CC1
658 | CCN(CC)CCCn1c(C)cc2c(c1=O)C(c1ccc(Cl)cc1)C(C#N)=C(N)O2 (centres undefined)
676 | O=C(NCc1ccc(F)cc1)C1CCN(c2cc(N3CCCCC3)ncn2)CC1
634 | CC1(C)CC(=O)C2=C(C1)N(CCCN1CCOCC1)C(=O)C2(NC(=O)c1ccccc1)C(F)(F)F (centres undefined)
977 | CCCN1C(=O)COc2cc(-c3noc(C(=O)NC4CCCC4)n3)ccc21
794 | COc1cc(NC(=O)C(C)Oc2ccc(=O)n(-c3ccc(F)cc3)n2)cc(OC)c1 (centres undefined)
1110 | Cc1ccc(-n2c(=O)c3sccc3n(Cc3nc(-c4cccc(Br)c4)no3)c2=O)cc1
865 | Cc1cccc(C)c1-n1ccn(Cc2nc(-c3ccccc3)no2)c(=O)c1=O
635 | COCCNC(=O)c1ncoc1-c1ccccc1C(=O)N1CCCC1
799 | COC(=O)c1cc(OCC(=O)Nc2ccccc2F)c2ccccc2n1
984 | CCc1ccc(OC(C)C(=O)N(Cc2ccc(C)o2)C2CCS(=O)(=O)C2)cc1 (centres undefined)
962 | CC(C)n1nc(CNC(=O)c2ccc(F)c(F)c2)c2ccccc21
636 | Cn1cnnc1SCC(=O)N1CCCc2ccccc21
534 | Cc1nnc(CNC(=O)C(=O)Nc2ccon2)o1
666 | CCOC(=O)c1noc2nc(C)nc(NCC3CCN(Cc4ccc(F)cc4)CC3)c12

RP-LC retention time [s] | Structure (SMILES)
558 | O=C(Nc1cccc([N+](=O)[O-])c1)C1(c2cccs2)CCOCC1
921 | CCN1C(=O)c2ccccc2Oc2ccc(C(=O)NCc3cccc(OC)c3)cc21
730 | CCOc1cc(-c2ccccc2)nc2ccc(NS(=O)(=O)c3ccc(OC)c(OC)c3)cc12
861 | CCCN1CCCCc2cc(C(=O)NC)sc21
1120 | Cc1ccc2oc(-c3noc(C(=O)NCc4ccc5c(c4)OCO5)n3)c(C)c2c1
650 | Cc1cccc(-c2nc3cnccn3c2NCCC(=O)N2CCCC2)c1
774 | CCN1C(=O)C2(CCN(S(=O)(=O)CC)CC2)c2ccccc21
826 | O=S(=O)(Cc1ccccc1F)N1CCC(c2noc(-c3cccnc3)n2)C1 (centres undefined)
832 | Clc1ccc(OCc2nn3c(-c4ccccn4)nnc3s2)cc1
596 | CC(C)n1cnc2cc(CNC(=O)c3cccc(C#N)c3)ccc21
1130 | CCN(CC)S(=O)(=O)c1cc(-c2nnc(-c3ccccc3Cl)o2)ccc1C
869 | Cc1onc(-c2ccccc2)c1-c1ccc(S(N)(=O)=O)cc1
706 | CC(=O)Nc1ccc(SCCCC(=O)N2CCc3ccccc32)nn1
654 | COc1cccc(-c2cc3n(n2)CCCN(C(=O)c2ccc(OC)c(OC)c2)C3)c1
570 | Cc1cc2n(n1)CCC(=O)N2CCCC(=O)NCCCN1CCCC(C)C1 (centres undefined)
640 | CCN1CCN(C(=O)CSc2nccnc2Sc2ccccc2)CC1
1270 | COc1cccc(-n2c(=O)c(C(=O)Nc3cc(F)ccc3F)c(O)c3cccnc32)c1
891 | Cc1ccc(C(=O)N2CCN(c3ccc(-c4nc(C)c(C)s4)cn3)CC2)s1
941 | CCCNC(=O)Nc1cccc(-c2noc(-c3ccc4c(c3)OCO4)n2)c1
649 | COc1ccc(C(=O)NCCc2nc3cccnc3n2C(C)C)cc1
